Experimental data from patent publication US20140249135A1, “PIM KINASE INHIBITORS AND METHODS OF THEIR USE” (NOVARTIS AG, priority 2007, published 2014).
Where two headings read alike, the source gives them in different places.

What was measured:
Pim1 kinase = Pim1 kinase (Homo sapiens, UniProt P11309); test: Pim1 ATP depletion assay; type: biochemical; conditions: Pim1 ATP depletion assay;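 also: Luciferase-luciferin luminescence readout of residual ATP after PIM1 transfers phosphate to a peptide substrate, 40 µM ATP added, reaction run to roughly half ATP consumption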
Chain of Pim1 kinase (P11309 whole entry): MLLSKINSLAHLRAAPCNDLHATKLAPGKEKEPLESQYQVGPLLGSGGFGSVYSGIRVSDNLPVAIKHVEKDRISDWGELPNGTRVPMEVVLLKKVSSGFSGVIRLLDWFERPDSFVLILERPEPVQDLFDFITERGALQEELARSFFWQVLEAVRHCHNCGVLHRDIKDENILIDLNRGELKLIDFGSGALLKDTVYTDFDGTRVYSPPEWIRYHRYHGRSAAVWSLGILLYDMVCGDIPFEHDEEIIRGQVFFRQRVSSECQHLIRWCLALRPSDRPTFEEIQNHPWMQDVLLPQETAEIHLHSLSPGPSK

Pim2 kinase = Pim2 kinase (Homo sapiens, UniProt Q9P1W9); test: Pim2 ATP depletion assay; type: biochemical;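 also: Luciferase-based luminescent readout of ATP remaining after PIM2 phosphorylates a BAD peptide, final 5 nM enzyme, 4 µM ATP, 10 µM peptide, 2.5% DMSO, run to roughly half ATP consumption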
Chain of Pim2 kinase (Q9P1W9 whole entry): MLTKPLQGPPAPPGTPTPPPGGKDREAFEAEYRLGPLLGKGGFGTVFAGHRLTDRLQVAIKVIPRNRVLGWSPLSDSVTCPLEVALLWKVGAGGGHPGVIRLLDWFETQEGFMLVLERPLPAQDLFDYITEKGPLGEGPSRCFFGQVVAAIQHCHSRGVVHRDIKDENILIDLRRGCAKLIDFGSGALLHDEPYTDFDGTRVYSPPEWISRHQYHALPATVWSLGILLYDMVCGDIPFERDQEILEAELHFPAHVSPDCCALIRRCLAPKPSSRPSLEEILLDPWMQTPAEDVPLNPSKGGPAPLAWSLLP

Pim3 kinase = Pim3 kinase (Homo sapiens, UniProt Q86V86); test: Pim3 ATP depletion assay; type: biochemical
[1] = biological target: T1, human full length PKCE enzyme (Homo sapiens, UniProt Q02156); test: In vitro PKCE assay; type: biochemical; conditions: 10 nM enzyme, 40 uM peptide substrate, 20 uM ATP, KinaseGlo Plus readout; read-out: PKCε IC50
T1 construct: human full length PKCE enzyme purchased from InVitrogen; purchased InVitrogen
T1 sequence (Q02156 1-737): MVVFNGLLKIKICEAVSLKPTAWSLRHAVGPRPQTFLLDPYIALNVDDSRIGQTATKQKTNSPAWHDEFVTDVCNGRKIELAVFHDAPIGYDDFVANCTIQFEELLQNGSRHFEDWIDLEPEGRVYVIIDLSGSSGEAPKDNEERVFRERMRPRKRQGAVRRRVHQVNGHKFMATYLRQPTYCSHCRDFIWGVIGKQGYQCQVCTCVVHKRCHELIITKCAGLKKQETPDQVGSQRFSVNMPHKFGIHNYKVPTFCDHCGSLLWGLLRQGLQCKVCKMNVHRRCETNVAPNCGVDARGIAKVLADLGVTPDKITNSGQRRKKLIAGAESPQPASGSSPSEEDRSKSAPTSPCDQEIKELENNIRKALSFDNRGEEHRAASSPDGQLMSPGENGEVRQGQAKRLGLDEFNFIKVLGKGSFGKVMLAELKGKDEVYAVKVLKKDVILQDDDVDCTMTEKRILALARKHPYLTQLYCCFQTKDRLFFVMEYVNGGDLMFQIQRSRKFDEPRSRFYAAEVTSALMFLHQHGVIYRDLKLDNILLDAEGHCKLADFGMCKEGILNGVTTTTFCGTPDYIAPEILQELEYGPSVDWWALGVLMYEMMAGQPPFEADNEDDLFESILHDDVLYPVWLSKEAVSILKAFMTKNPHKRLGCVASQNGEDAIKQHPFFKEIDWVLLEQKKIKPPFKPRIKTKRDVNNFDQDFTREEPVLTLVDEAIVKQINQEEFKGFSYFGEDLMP

KDR kinase = KDR kinase (Homo sapiens, UniProt P35968); test: KDR AlphaScreen assay; conditions: KDR IC50 (μM)
Chain of KDR kinase (P35968 20-1356): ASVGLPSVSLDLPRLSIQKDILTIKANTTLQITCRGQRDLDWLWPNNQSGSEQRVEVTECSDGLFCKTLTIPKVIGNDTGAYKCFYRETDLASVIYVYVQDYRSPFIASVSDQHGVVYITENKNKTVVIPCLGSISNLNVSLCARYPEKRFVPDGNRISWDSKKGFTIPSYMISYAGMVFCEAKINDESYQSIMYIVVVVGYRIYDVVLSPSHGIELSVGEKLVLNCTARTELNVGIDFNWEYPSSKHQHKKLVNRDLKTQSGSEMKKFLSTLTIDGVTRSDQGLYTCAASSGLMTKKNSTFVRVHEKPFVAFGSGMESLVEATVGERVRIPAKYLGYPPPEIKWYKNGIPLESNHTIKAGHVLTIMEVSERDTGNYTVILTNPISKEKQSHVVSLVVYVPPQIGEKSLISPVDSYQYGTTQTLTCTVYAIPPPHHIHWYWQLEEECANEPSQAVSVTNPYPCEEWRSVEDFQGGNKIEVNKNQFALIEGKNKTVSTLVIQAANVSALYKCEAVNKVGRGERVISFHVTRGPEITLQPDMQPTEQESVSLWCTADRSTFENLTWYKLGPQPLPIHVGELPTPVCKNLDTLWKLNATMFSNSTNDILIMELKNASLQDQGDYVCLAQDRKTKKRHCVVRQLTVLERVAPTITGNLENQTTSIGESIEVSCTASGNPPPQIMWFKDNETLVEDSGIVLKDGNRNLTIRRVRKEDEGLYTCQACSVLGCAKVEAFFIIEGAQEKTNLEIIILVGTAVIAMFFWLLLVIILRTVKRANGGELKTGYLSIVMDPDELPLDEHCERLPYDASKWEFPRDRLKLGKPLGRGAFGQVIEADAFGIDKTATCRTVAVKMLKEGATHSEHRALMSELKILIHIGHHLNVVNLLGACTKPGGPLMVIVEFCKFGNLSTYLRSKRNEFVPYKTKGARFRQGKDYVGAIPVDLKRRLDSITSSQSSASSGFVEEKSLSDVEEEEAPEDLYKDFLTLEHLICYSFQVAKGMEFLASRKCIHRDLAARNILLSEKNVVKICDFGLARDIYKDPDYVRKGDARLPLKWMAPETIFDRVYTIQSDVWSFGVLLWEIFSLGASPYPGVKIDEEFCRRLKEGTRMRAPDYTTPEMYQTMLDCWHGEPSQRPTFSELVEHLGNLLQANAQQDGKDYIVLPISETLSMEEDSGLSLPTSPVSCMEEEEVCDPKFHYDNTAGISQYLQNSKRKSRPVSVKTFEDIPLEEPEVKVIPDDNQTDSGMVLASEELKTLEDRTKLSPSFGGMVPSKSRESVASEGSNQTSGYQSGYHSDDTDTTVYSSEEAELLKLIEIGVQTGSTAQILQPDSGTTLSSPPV

Row | SMILES | IC50 (Pim1 kinase; read-out: IC50 (μM) PIM1) | IC50 (Pim2 kinase; read-out: IC50 (μM) PIM2) | IC50 (Pim3 kinase; read-out: IC50 (μM) PIM3) | IC50 [1] | IC50 (KDR kinase) | IC50 (Pim1 kinase; read-out: PIM1 IC50) | IC50 (Pim2 kinase; read-out: PIM2 IC50) | IC50 (Pim3 kinase; read-out: PIM3 IC50)
1 | Nc1nccnc1C(=O)Nc1cc(C(=O)C2CC2)ccc1N1CCCC(N)C1 (centres unmarked) [Example 243, 3-amino-pyrazine-2-carboxylic acid [2-(3-amino-piperidin-1-yl)-5-cyclopropanecarbonyl-phenyl]-amide] | 1 to 10 µM | 10 to 25 µM | 1 to 10 µM | 1000 to 10000 nM | > 25 µM | – | – | –
2 | NCC1CCCN(c2cnc(=O)[nH]c2NC(=O)c2nc(Cl)c(N)nc2N)C1 (centres unmarked) [Example 236, 3,5-diamino-N-{5-[3-(amino-methyl)piperidin-1-yl]-2-oxo-2,3-dihydropyrimidin-4-yl}-6-chloropyrazine-2-carboxamide] | < 1 µM | < 1 µM | < 1 µM | > 25000 nM | 10 to 25 µM | – | – | –
3 | NCCC(=O)N1CCN(c2cnc(=O)[nH]c2NC(=O)c2nccnc2N)CC1 [Example 237, 3-amino-N-{5-[4-(3-amino-propanoyl)piperazin-1-yl]-2-oxo-2,3-dihydropyrimidin-4-yl}-pyrazine-2-carboxamide] | < 1 µM | < 1 µM | < 1 µM | 1000 to 10000 nM | < 1 µM | – | – | –
4 | Nc1ncc(-c2ccccc2F)nc1C(=O)Nc1ccccc1N1CCCC(N)C1 (centres unmarked) [Example 374, 3-amino-6-(2-fluoro-phenyl)-pyrazine-2-carboxylic acid [2-(3-amino-piperidin-1-yl)-phenyl]-amide] | – | – | – | < 1000 nM | 1 to 10 µM | – | – | –
5 | Nc1nccnc1C(=O)Nc1cc(C(=O)c2ccccc2)ccc1N1CCNCC1 [Example 232, 3-amino-pyrazine-2-carboxylic acid (5-benzoyl-2-piperazin-1-yl-phenyl)-amide] | 10 to 25 µM | > 25 µM | 10 to 25 µM | 10000 to 25000 nM | 10 to 25 µM | – | – | –
6 | Cc1ccc(NC(=O)c2nccnc2N)c(N2CCNCC2)c1 [Example 227, 3-amino-N-(4-methyl-2-piperazin-1-ylphenyl)pyrazine-2-carboxamide] | 1 to 10 µM | > 25 µM | 1 to 10 µM | 1000 to 10000 nM | > 25 µM | – | – | –
7 | Cc1ccc(-c2ccc(N)c(C(=O)Nc3cnccc3N3CCC[C@H](N)C3)n2)c(F)c1 [Example 406, (S)-3-amino-N-(4-(3-aminopiperidin-1-yl)pyridin-3-yl)-6-(2-fluoro-4-methylphenyl)picolinamide] | < 1 µM | < 1 µM | < 1 µM | 1000 to 10000 nM | > 25 µM | – | – | –
8 | COc1ccc(-c2cnc(N)c(C(=O)Nc3ccccc3N3CCCC(N)C3)n2)cc1 (centres unmarked) [Example 375, 3-amino-6-(4-methoxy-phenyl)-pyrazine-2-carboxylic acid [2-(3-amino-piperidin-1-yl)-phenyl]-amide] | – | – | – | < 1000 nM | 1 to 10 µM | – | – | –
9 | Cc1ccccc1-c1cnc(N)c(C(=O)Nc2[nH]c(=O)ncc2N2CCCC(N)C2)n1 (centres unmarked) [Example 400, 3-amino-6-o-tolyl-pyrazine-2-carboxylic acid [5-(3-amino-piperidin-1-yl)-2-oxo-2,3-dihydro-pyrimidin-4-yl]-amide] | – | – | – | 1000 to 10000 nM | < 1 µM | – | – | –
10 | Nc1cc(-c2ccccc2)cnc1C(=O)Nc1cnccc1N1CCC[C@H](N)C1 [Example 264, 3-Amino-5-phenyl-pyridine-2-carboxylic acid (3-amino-3,4,5,6-tetrahydro-2H-[1,4′]bipyridinyl-3′-yl)-amide] | < 1 µM | < 1 µM | < 1 µM | – | < 1 µM | – | – | –
11 | CSc1nc(N)cc(-c2ccncc2NC(=O)c2nc(-c3c(F)cccc3F)ccc2N)n1 [Example 275, 3-Amino-6-(2,6-difluoro-phenyl)-pyridine-2-carboxylic acid [4-(6-amino-2-methylsulfanyl-pyrimidin-4-yl)-pyridin-3-yl]-amide] | < 1 µM | < 1 µM | < 1 µM | – | 10 to 25 µM | – | – | –
12 | Nc1cnc(-c2c(F)cccc2F)nc1C(=O)Nc1cnccc1N1CCCC(O)(C(F)(F)F)C1 (centres unmarked) [Example 165, 5-Amino-2-(2,6-difluoro-phenyl)-pyrimidine-4-carboxylic acid (3-hydroxy-3-trifluoromethyl-3,4,5,6-tetra-hydro-2H-[1,4′]bipyridinyl-3′-yl)-amide] | < 1 µM | < 1 µM | < 1 µM | – | 10 to 25 µM | – | – | –

Second part, the compound after the results:

Row | IC50 (Pim1 kinase; read-out: IC50 (μM) PIM1) | IC50 (Pim2 kinase; read-out: IC50 (μM) PIM2) | IC50 (Pim3 kinase; read-out: IC50 (μM) PIM3) | IC50 [1] | IC50 (KDR kinase) | IC50 (Pim1 kinase; read-out: PIM1 IC50) | IC50 (Pim2 kinase; read-out: PIM2 IC50) | IC50 (Pim3 kinase; read-out: PIM3 IC50) | SMILES
13 | 1 to 10 µM | > 25 µM | 1 to 10 µM | 1000 to 10000 nM | 1 to 10 µM | – | – | – | Nc1nccnc1C(=O)Nc1cc(C(=O)c2ccccc2)ccc1N1CCC(N)CC1 [Example 233, 3-amino-pyrazine-2-carboxylic acid [2-(4-amino-piperidin-1-yl)-5-benzoyl-phenyl]-amide]
14 | < 1 µM | < 1 µM | < 1 µM | < 1000 nM | 1 to 10 µM | – | – | – | COc1ccc(N2CCC(N)CC2)c(NC(=O)c2nc(-c3ccccc3)cnc2N)c1 [Example 437, 3-amino-6-phenyl-pyrazine-2-carboxylic acid [2-(4-amino-piperidin-1-yl)-5-methoxy-phenyl]-amide]
15 | < 1 µM | < 1 µM | < 1 µM | > 25000 nM | 10 to 25 µM | – | – | – | COc1nc(N)ncc1-c1ccc(N)c(C(=O)Nc2cnccc2N2CCC[C@H](N)C2)n1 [Example 485, 3-Amino-6-(2-amino-4-methoxy-pyrimidin-5-yl)-pyridine-2-carboxylic acid (3-amino-3,4,5,6-tetrahydro-2H-[1,4′]bipyridinyl-3′-yl)-amide]
16 | < 1 µM | < 1 µM | < 1 µM | 1000 to 10000 nM | 1 to 10 µM | – | – | – | NCC(=O)N1CCN(c2ccncc2NC(=O)c2nc(Cl)c(N)nc2N)CC1 [Example 186, 3,5-diamino-N-{4-[4-(amino-acetyl)piperazin-1-yl]pyridin-3-yl}-6-chloropyrazine-2-carboxamide]
17 | < 1 µM | > 25 µM | 1 to 10 µM | 1000 to 10000 nM | < 1 µM | – | – | – | CC(=O)NC1CCCN(c2ccncc2NC(=O)c2nc(Br)cnc2N)C1 (centres unmarked) [Example 304, N-(4-(3-acetamidopiperidin-1-yl)pyridin-3-yl)-3-amino-6-bromopyrazine-2-carboxamide]
18 | 1 to 10 µM | 1 to 10 µM | 1 to 10 µM | 10000 to 25000 nM | < 1 µM | – | – | – | Nc1ncc(-c2ccccc2)nc1C(=O)Nc1cc(C(=O)c2ccccc2)ccc1N1CCCC(N)C1 (centres unmarked) [Example 435, 3-amino-6-phenyl-pyrazine-2-carboxylic acid [2-(3-amino-piperidin-1-yl)-5-benzoyl-phenyl]-amide]
19 | < 1 µM | 1 to 10 µM | 1 to 10 µM | < 1000 nM | 1 to 10 µM | – | – | – | Nc1ncc(-c2ccoc2)nc1C(=O)Nc1ccccc1N1CCNCC1 [Example 384, 3-amino-6-furan-3-yl-pyrazine-2-carboxylic acid (2-piperazin-1-yl-phenyl)-amide]
20 | – | – | – | 1000 to 10000 nM | 1 to 10 µM | < 1 µM | 1 to 10 µM | < 1 µM | Nc1ncc(Br)nc1C(=O)Nc1cnccc1N1CCCC(NCc2ccccc2)C1 (centres unmarked) [Example 598, 3-amino-6-bromo-pyrazine-2-carboxylic acid (3-benzylamino-3,4,5,6-tetrahydro-2H-[1,4′]bi-pyridinyl-3′-yl)-amide]
21 | – | – | – | < 1000 nM | < 1 µM | – | – | – | NC(=O)c1cccc(-c2cnc(N)c(C(=O)Nc3ccccc3N3CCCC(N)C3)n2)c1 (centres unmarked) [Example 373, 3-amino-6-(3-carbamoyl-phenyl)-pyrazine-2-carboxylic acid [2-(3-amino-piperidin-1-yl)-phenyl]-amide]
22 | < 1 µM | < 1 µM | < 1 µM | – | 10 to 25 µM | – | – | – | Nc1ccc(-c2scc3c2OCCO3)nc1C(=O)Nc1cnccc1N1CCC[C@H](N)C1 [Example 447, 3-Amino-6-(2,3-dihydro-thieno[3,4-b][1,4]dioxin-5-yl)-pyridine-2-carboxylic acid (3-amino-3,4,5,6-tetrahydro-2H-[1,4′]bipyridinyl-3′-yl)-amide]
23 | – | – | – | – | 10 to 25 µM | < 1 µM | < 1 µM | < 1 µM | CSc1nc(N)cc(-c2ccncc2NC(=O)c2nc(-c3cc(C(=O)N(C)C)ccc3F)ccc2N)n1 [Example 535, 3-Amino-6-(5-dimethylcarbamoyl-2-fluoro-phenyl)-pyridine-2-carboxylic acid [4-(6-amino-2-methylsulfanyl-pyrimidin-4-yl)-pyridin-3-yl]-amide]
